Where two headings read alike, the source gives them in different places.

Among the data in patent publication US7868026B2, “Therapeutic compounds” (Pfizer Inc., priority 2005, dated 2011) are IC50 and Ki values, retold here.

Common to all, as to format: biochemical
Assay [1] has as its target T1, CYP3A4 (Homo sapiens, UniProt P08684). The experiment in a line: Determination of IC50 against CYP3A4 by measurement of inhibition of midazolam metabolism (human liver microsomes, 1-hydroxymidazolam by LC-MS/MS). The arrangement: 0.1 mg/mL human liver microsomes. Particulars: 2 μM midazolam, 0.1 mg/mL human liver microsomes. The procedure, abridged: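 Human liver microsomes (0.1 mg/mL) incubated 8 min with 2 μM midazolam and 1 mM NADPH in 100 mM potassium phosphate, pH 7.4. 1-Hydroxymidazolam quantified by LC-MS/MS (MRM) as peak area ratio to internal standard against a metabolite standard curve.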
In general terms: Microsomes from liver hold many membrane-bound enzymes, among them those of drug oxidation.

The target in assay [2] is T1, CYP3A4. Put plainly: Determination of compound Kiapp against recombinant CYP3A4 enzyme (BFC fluorescent substrate). The procedure, abridged:
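Kiapp derived from initial velocities over the first 5 min of BFC (5 uM) oxidation, using Morrison's tight-binding equation for non-partial and Szedlacsek's for partial inhibitors. Inhibitor first pre-incubated ≥30 min with CYP3A4 (5.5 or 8 nM, ±b5) in pH 7.0 phosphate/TCEP/2% DMF at room temperature; 200 uM NADPH initiated.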

The target of assay [3] is T1, CYP3A4. Put plainly: Determination of IC50 against CYP3A4 by measurement of inhibition of testosterone metabolism (human liver microsomes, 6-β-OH-testosterone by LC-MS/MS). Set-up: 0.1 mg/mL human liver microsomes. As to conditions: read-out: IC50 (Testo.). On the procedure: 2. Determination of IC50 Against CYP3A4 by Measurement of Inhibition of Testosterone Metabolism
This assay was performed using a standard 96 well plate design. […] The incubation substrate mix contains 25 μM testosterone, 0.1 mg/mL human liver microsomes, 1 mM NADPH, and potassium phosphate buffer (100 mM, pH 7.4). Quantitation of metabolite peak area ratio against an internal standard is determined by LC-MS/MS analysis. The production of 6-β-OH-testosterone from testosterone metabolism is determined after incubation for eight minutes by comparison to a standard curve generated for the metabolite
Samples were analyzed in the MRM mode using a Sciex API 3000 mass spectrometer (Applied Biosystems, Foster City, Calif.) with a Paradigm MS4 binary pump (Michrom BioResources Inc., Auburn, Calif.) and a LEAP CTC PAL autosampler (LEAP Technologies, Carrboro, N.C.). A Phenomenex Synergi, 4μ, Polar-RP, 10×2.0 mm column (Phenomenex, Torrance, Calif.) was used for separation with a mobile phase composition of: 0.1% formic acid in water (A) and: 0.1% formic acid in methanol (B). The following gradient was used: […]
The sample injection volume was 10 μL and flow was split post-column with 0.4 mL/min going to the mass spectrometer. Analysis was performed using the following API 3000 mass spectrometer settings: […]

[4] abbreviates: Baculo. enzyme preparation, read-out: Kiapp (BFC, Baculo.).
Setting [5] is: Super. enzyme preparation, read-out: Kiapp (BFC, Super.).

T1 sequence (P08684 whole entry): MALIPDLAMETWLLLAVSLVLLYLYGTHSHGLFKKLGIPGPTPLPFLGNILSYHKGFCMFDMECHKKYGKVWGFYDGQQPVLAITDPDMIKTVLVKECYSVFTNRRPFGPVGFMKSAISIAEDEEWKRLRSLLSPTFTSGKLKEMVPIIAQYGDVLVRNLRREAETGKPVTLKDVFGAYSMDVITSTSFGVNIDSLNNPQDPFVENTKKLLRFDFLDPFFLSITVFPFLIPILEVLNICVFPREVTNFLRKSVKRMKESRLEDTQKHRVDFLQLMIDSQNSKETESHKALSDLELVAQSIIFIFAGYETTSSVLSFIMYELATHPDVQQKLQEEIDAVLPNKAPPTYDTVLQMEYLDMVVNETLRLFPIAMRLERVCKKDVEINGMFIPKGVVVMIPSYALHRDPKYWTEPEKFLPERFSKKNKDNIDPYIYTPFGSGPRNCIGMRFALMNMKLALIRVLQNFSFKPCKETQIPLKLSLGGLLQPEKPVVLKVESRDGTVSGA

As for `CC(C)(C)OC(=O)N1CC2(CCN(C(=O)c3ccccc3S(=O)(=O)Nc3cccnc3)CC2)C1` [Example 10, tert-butyl 7-{2-[(pyridin-3-ylamino)sulfonyl]benzoyl}-2,7-diazaspiro[3.5]nonane-2-carboxylate], the figures for the IC50 in assay [1] and in assay [3] were 0.279 µM and > 0.75 µM, respectively. In addition, the Ki in assay [2] (setting [4]) is > 1 µM; in assay [2] (setting [5]) it was 0.558 µM.
Taken in the same sequence, the figures for `CC(C)(C)OC(=O)N1CCC2(CC1)CN(C(=O)c1ccccc1S(=O)(=O)Nc1cccnc1)C2` [Example 11, tert-butyl 2-{2-[(pyridin-3-ylamino)sulfonyl]benzoyl}-2,7-diazaspiro[3.5]nonane-7-carboxylate] were > 0.75 µM, > 0.75 µM, > 1 µM and 0.563 µM.
For the molecule `O=C(NCc1ccccc1)c1ccccc1S(=O)(=O)Nc1cccnc1` [Example 12, N benzyl-2-[(pyridin-3-ylamino)sulfonyl]benzamide], the IC50 (in general, the concentration at which inhibition is half-maximal) in assay [1] was found to be 0.031 µM; in assay [3], 0.029 µM. Besides, the figures for the Ki in assay [2] (setting [4]) and in assay [2] (setting [5]) were 0.27 µM and 0.0105 µM, respectively.
In the case of `COc1cncc(NS(=O)(=O)c2ccccc2C(=O)N2CCCCC2)c1` [Example 16, N-(5-methoxypyridin-3-yl)-2-(piperidin-1-ylcarbonyl)benzenesulfonamide], the IC50 worked out at 0.065 µM in assay [1] and 0.117 µM in assay [3]. Moreover, in assay [2] (setting [4]), the Ki is 0.433 µM.
For `CCCCNC(=O)c1ccccc1S(=O)(=O)Nc1cncc(OC)c1` [Example 17, N-butyl-2-{[(5-methoxypyridin-3-yl)amino]sulfonyl}benzamide] the same measures were 0.026 µM, 0.062 µM and 0.133 µM.
Taken in the same sequence, the figures for `COc1ccncc1NS(=O)(=O)c1ccccc1C(=O)N1CCCCC1` [Example 18, N-(4-methoxypyridin-3-yl)-2-(piperidin-1-ylcarbonyl)benzenesulfonamide] were 0.146 µM, 0.349 µM and 0.57 µM.
Taken in the same sequence, the figures for `CCCCNC(=O)c1ccccc1S(=O)(=O)Nc1cnccc1OC` [Example 19, N-butyl-2-{[(4-methoxypyridin-3-yl)amino]sulfonyl}benzamide] were 0.069 µM, 0.169 µM and 0.329 µM.
As for `O=C(c1ccccc1S(=O)(=O)Nc1cccnc1)N1CCCC1` [Example 20, N-pyridin-3-yl-2-(pyrrolidin-1-ylcarbonyl)benzenesulfonamide], the half-inhibitory concentration (IC50) in assay [1] amounted to 0.379 µM; in assay [3], 0.445 µM. The Ki in assay [2] (setting [4]) was > 1 µM.
Taken in the same sequence, the figures for `O=C(c1ccccc1S(=O)(=O)Nc1cccnc1)N1CCOCC1` [Example 21, 2-(morpholin-4-ylcarbonyl)-N-pyridin-3-ylbenzenesulfonamide] were > 0.75 µM, > 0.75 µM and > 1 µM.
In the case of `N#Cc1cncc(NS(=O)(=O)c2ccccc2C(=O)N2CCCCC2)c1` [Example 22, N-(5-cyanopyridin-3-yl)-2-(piperidin-1-ylcarbonyl)benzenesulfonamide], the concentration for half-maximal inhibition (IC50) in assay [1] and in assay [3] was > 0.75 µM throughout. The Ki in assay [2] (setting [4]) was > 1 µM.
As to `O=C(NC1(CO)CCCC1)c1ccccc1S(=O)(=O)Nc1cccnc1` [Example 23, N-[1-(hydroxymethyl)cyclo-pentyl]-2-[(pyridin-3-ylamino)sulfonyl]benzamide], the IC50 in assay [1] was determined as 0.103 µM; in assay [3], 0.325 µM. The Ki was > 1 µM in assay [2] (setting [4]) and 0.28 µM in assay [2] (setting [5]).
Regarding `CCCCNC(=O)c1ccccc1S(=O)(=O)Nc1cncc(C#N)c1` [Example 24, N-butyl-2-{[(5-cyanopyridin-3-yl)amino]sulfonyl}benzamide], the half-inhibitory concentration (IC50) in assay [1] is 0.567 µM; in assay [3], > 0.75 µM. In addition, the Ki in assay [2] (setting [4]) was > 1 µM.
`CC1CC(C)CN(C(=O)c2ccccc2S(=O)(=O)Nc2cccnc2)C1` (stereo not shown) [Example 25, 2-[(3,5-dimethylpiperidin-1-yl)carbonyl]-N-pyridin-3-ylbenzenesulfonamide]: the IC50 in assay [1] is 0.045 µM; in assay [3], 0.077 µM. Besides, the Ki in assay [2] (setting [4]) came out at 0.239 µM.
Take `COC1CCN(C(=O)c2ccccc2S(=O)(=O)Nc2cccnc2)CC1` [Example 26, 2-[(4-methoxypiperidin-1-yl)carbonyl]-N-pyridin-3-ylbenzenesulfonamide]: the IC50 in assay [1] is 0.494 µM; in assay [3], 0.691 µM. The Ki in assay [2] (setting [4]) was > 1 µM.
Taken in the same sequence, the figures for `C[C@@H]1CN(C(=O)c2ccccc2S(=O)(=O)Nc2cccnc2)C[C@H](C)O1` [Example 27, 2-{[(2R,6S)-2,6-dimethylmorpholin-4-yl]carbonyl}-N-pyridin-3-ylbenzenesulfonamide] were 0.658 µM, > 0.75 µM and > 1 µM.
On to `O=C(c1ccccc1S(=O)(=O)Nc1cccnc1)N1CCC(O)CC1` [Example 28, 2-[(4-hydroxypiperidin-1-yl)carbonyl]-N-pyridin-3-ylbenzenesulfonamide], for which the IC50 in assay [1] and in assay [3] was > 0.75 µM each time. Further, the Ki in assay [2] (setting [4]) is > 1 µM.
With `CC1(C)CCCN(C(=O)c2ccccc2S(=O)(=O)Nc2cccnc2)C1` [Example 29, 2-[(3,3-dimethylpiperidin-1-yl)carbonyl]-N-pyridin-3-ylbenzenesulfonamide], the IC50 in assay [1] came out at 0.076 µM; in assay [3], 0.172 µM. In assay [2] (setting [4]), the Ki was 0.324 µM.
Taken in the same sequence, the figures for `Cc1cncc(NS(=O)(=O)c2ccccc2C(=O)N2CCCCC2)c1` [Example 30, N-(5-methylpyridin-3-yl)-2-(piperidin-1-ylcarbonyl)benzenesulfonamide] were 0.056 µM, 0.125 µM and 0.69 µM.
For `CCCCNC(=O)c1ccccc1S(=O)(=O)Nc1cncc(C)c1` [Example 31, N-butyl-2-{[(5-methylpyridin-3-yl)amino]sulfonyl}benzamide] the same measures were 0.023 µM, 0.038 µM and 0.0701 µM.
For `CC(C)(CN1CCOCC1)NC(=O)c1ccccc1S(=O)(=O)Nc1cccnc1` [Example 33, N-(1,1-dimethyl-2-morpholin-4-ylethyl)-2-[(pyridin-3-ylamino)sulfonyl]benzamide], the IC50 was 0.111 µM in assay [1] and 0.473 µM in assay [3]. Also, the Ki in assay [2] (setting [4]) was > 1 µM.
Consider `CC(C)(COCc1ccccc1)NC(=O)c1ccccc1S(=O)(=O)Nc1cccnc1` [Example 34, N-[2-(benzyloxy)-1,1-dimethylethyl]-2-[(pyridin-3-ylamino)sulfonyl]benzamide], for which the 50% inhibitory concentration (IC50) in assay [1] and in assay [3] was > 0.75 µM throughout. In addition, in assay [2] (setting [4]), the Ki was > 1 µM.
For `CN1CCN(C(=O)c2ccccc2S(=O)(=O)Nc2cccnc2)CC1` [Example 35, 2-[(4-methylpiperazin-1-yl)carbonyl]-N-pyridin-3-ylbenzenesulfonamide], the IC50 in assay [1] and in assay [3] was > 0.75 µM each time. The Ki in assay [2] (setting [4]) was > 1 µM.
On to `CCOC(=O)N1CCN(C(=O)c2ccccc2S(=O)(=O)Nc2cccnc2)CC1` [Example 36, ethyl 4-{2-[(pyridin-3-ylamino)sulfonyl]benzoyl} piperazine-1-carboxylate], for which the half-inhibitory concentration (IC50) in assay [1] and in assay [3] was > 0.75 µM in each case. The Ki in assay [2] (setting [4]) is > 1 µM.
For the molecule `CN(C)CCNC(=O)c1ccccc1S(=O)(=O)Nc1cccnc1` [Example 37], the half-maximal inhibitory concentration (IC50) in assay [1] and in assay [3] was > 0.75 µM throughout. In assay [2] (setting [4]), the Ki was > 1 µM.
`CCC(C)(C)NC(=O)c1ccccc1S(=O)(=O)Nc1cccnc1` [Example 38, N-(1,1-dimethylpropyl)-2-[(pyridin-3-ylamino)sulfonyl]benzamide]: the concentration for half-maximal inhibition (IC50) in assay [1] was found to be 0.068 µM; in assay [3], 0.084 µM. In assay [2] (setting [4]), the Ki stood at 0.644 µM.
For `CC(C)(CO)NC(=O)c1ccccc1S(=O)(=O)Nc1cccnc1` [Example 39, N-(2-hydroxy-1,1-dimethylethyl)-2-[(pyridin-3-ylamino)sulfonyl]benzamide] the same measures were > 0.5 µM, > 0.5 µM and > 1 µM.
For `CCN(CCn1cccn1)C(=O)c1ccccc1S(=O)(=O)Nc1cccnc1` [Example 40, N-ethyl-N-[2-(1H-pyrazol-1-yl)ethyl]-2-[(pyridin-3-ylamino)sulfonyl]benzamide], the half-inhibitory concentration (IC50) in assay [1] was determined as 0.179 µM; in assay [3], 0.34 µM. Further, the Ki in assay [2] (setting [4]) is > 1 µM.
